{"source": "paper PMC3497017", "about": "“Antioxidant and Anti-Protease Activities of Diazepinomicin from the Sponge-Associated Micromonospora Strain RV115” (Marine Drugs, 2012)", "molecular_target": "T1, human cathepsin L (Homo sapiens, UniProt P07711)", "T1 construct": "gene CTSL", "T1 sequence (P07711 114-288)": "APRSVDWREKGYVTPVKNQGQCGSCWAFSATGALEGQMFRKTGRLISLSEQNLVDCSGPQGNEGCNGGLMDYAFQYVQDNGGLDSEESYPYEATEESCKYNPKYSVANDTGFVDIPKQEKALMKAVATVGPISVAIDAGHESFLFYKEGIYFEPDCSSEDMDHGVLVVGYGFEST", "T1 sequence (P07711 292-333)": "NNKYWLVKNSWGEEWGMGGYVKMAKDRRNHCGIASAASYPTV", "assay": "fluorogenic Cbz-Phe-Arg-AMC hydrolysis with inner-filter correction, confirmed by HPLC-based assay", "type": "biochemical"}
{"smiles": "CC(C)=CCC/C(C)=C/CC/C(C)=C/CN1C(=O)c2cccc(O)c2Nc2c(O)cc(O)cc21", "note": "[compound 1, diazepinomicin]", "values": [{"measurement": "IC50", "result": "72.4 ± 5.3", "unit": "µM"}]}
